Measured values: patent US8076485B2, “Methylphenidate derivatives and uses of them” (priority 2005, dated 2011)

Legend:
[1] = threo versus erythro methylphenidate; cited from earlier work
TCR-positive cells = assay: Annexin staining of TCR-positive cells (flow cytometry, cell death); assay type: cell-based, human; settings: PHA plus dexamethasone 10 μM
Method: After this incubation, PHA was added to give a final concentration of 5 μg/ml, and the cells were incubated for an additional 72 hours at 37° C., 5% CO2. All cultures were performed in triplicate. Cells were then removed by centrifugation at 1000 rpm for 10 minutes.
The cells were further analyzed by flow cytometry Annexin was used to determine populations of dead or dying cells. Anti-CD69 antibody was used to establish the level of cellular activation. Antibody to T-cell receptor αβ (TCR) was also used. Recombinant Annexin 5 (PE and FITC conjugates) and the antibodies were all purchase from Caltag (Burlingham, Calif.) and used following the manufacturer's recommendations.

IL-8 = IL-8 release from LPS-stimulated THP-1 monocytes (ELISA); assay type: cell-based; settings: THP-1, LPS 200 ng/ml, 24 hours; Cpd II 15 μg/ml, Dex 10 μM
Method: (§1) THP-1 is a monocyte cell line obtained from American Type Culture Collection (ATCC) (catalog no. TIB-202). […] After 1 hour, lipopolysaccharide (LPS) (obtained from Sigma) was added to the cultures to give a final concentration of 200 ng/ml, and the cells were then incubated for an additional 4 hours or for an additional 24 hours. After the incubation, the cells were centrifuged, and the supernatants were collected. The concentrations of IL-8 and TNFα in the supernatants were determined by ELISA.
The concentrations of IL-8 in the supernatants were determined by ELISA performed as described in Example 4.

TNFα = TNFα release from LPS-stimulated THP-1 monocytes (ELISA); assay type: cell-based; settings: THP-1, LPS 200 ng/ml, 24 hours; Cpd II 15 μg/ml, Dex 10 μM
Method: as §1
The TNFα ELISA was performed as described in Example 2.

NFκB = assay: Activated NFκB in TNFα- or VEGF-treated HIAECs (TransAM assay); assay type: cell-based; settings: Homo sapiens, TNFα 10 ng/ml, Cpd II 15 μg/ml, LY 294002 10 μM, read-out: Percent Inhibition (NFκB)
Method: Passage 8 (human iliac artery endothelial cells (HIAECs) (obtained from ATCC; catalog no. CC-2545) were grown to confluence in 25 cm^2 flasks in EGM-2 medium. Eighteen hours prior to the experiment, the medium was replaced with EGM-2 medium containing 0.1% FCS plus heparin, GA1000 (gentamycin) and bovine pituitary extract (all from Cambrex) to place the cells in a resting state. To perform the experiment the medium was aspirated from the flasks, and the following additives were added to the flasks in fresh medium (total volume of 5 ml/flask): 15 μg/ml of the compound of formula II (Cpd II) or 10 μM LY 294002. The flasks were incubated 2 hours at 37° C., 5% CO2. After this incubation, VEGF or TNFα was added to give a final concentration 10 ng/ml, and the flasks were incubated for an additional 30 minutes. Then, the amount of NFκB was determined using a TransAM™ NFκB p65/NFκB p50 Transcription Factor Assay Kit and a Nuclear Extract Kit from Active Motif North America, Carlsbad, Calif., as described in Example 12.

erythropoietin (EPO) = assay: Erythropoietin (EPO) release from HepG2 cells (ELISA); assay type: cell-based, human; settings: HepG2, hypoxia (5% CO2), 24 hours; Cpd II 15 μg/ml, LY 294002 25 μM; hypoxia alone 108.39 ± 2.81
Method: HepG2 is a human hepatic cancer cell line, which was obtained from ATCC. HepG2 cells were grown to confluence in 25 cm^2 flasks in IMDM medium containing 10% FCS. Then, the cells were trypsinized as follows. The medium in each flask was aspirated and replaced with 5 ml of 0.025% trypsin/EDTA (Cambrex). The cells were monitored on a microscope until they no longer adhered to the flasks. Then, 5 ml of trypsin neutralizing solution (TNS) (Cambrex) were added to each flask to stop the reaction. The cell suspension was centrifuged at 1000 rpm for 10 minutes, and the supernatants were aspirated. The cells were reconstituted in fresh medium and counted. Then, 4 ml of the cell suspension in medium containing at 1.22×10^6 cells/ml were mixed with an additional 1 ml of medium. Next, 0.5 ml/well of the resulting cell suspension was added to wells in a 24-well culture plate (about 500,000 cells/well). The cells were treated as indicated in Table 5 below and incubated for 24 hours at 37° C., with or without 5% CO2. The supernatants were removed from the wells and centrifuged to remove debris. Next, the supernatants were analyzed for erythropoietin (EPO) production. EPO was measured by ELISA using a kit obtained from R & D Systems, Minneapolis, Minn. (catalog no. DE900) following the manufacturer's instructions.

Question: With COC(=O)C(c1ccccc1)C1CCCCN1 (single isomer, unassigned) [threo diastereomer] as the molecule, how does the “potency relative to the erythro diastereomer” value [1] read?
Answer: The value was “about 80 times”.

Question: Which “Annexin staining of TCR-positive cells” value (TCR-positive cells) does the source give for C[C@@H]1C[C@H]2[C@@H]3CCC4=CC(=O)C=C[C@]4(C)[C@@]3(F)[C@@H](O)C[C@]2(C)[C@@]1(O)C(=O)CO [dexamethasone, reference compound] here?
Answer: Its value is 48%.

Question: And the “Mean IL-8 Concentration” value (IL-8)?
Answer: The value was 2300.00 ± 283.41 pg/mL.

Question: And the “Mean TNFα Concentration” value (TNFα)?
Answer: Its value is 94.759 ± 8.755 pg/mL.

Question: Which results are given for O=c1cc(N2CCOCC2)oc2c(-c3ccccc3)cccc12 [LY 294002, reference compound]?
Answer: inhibition at 10 µM (NFκB): 10%; Mean Units/ml EPO (erythropoietin (EPO)): 52.99 ± 1.04 Units/ml
